Experiments:
CD4+/CD8+ = assay: ETASS trial: CD4+/CD8+ ratio; type: in vivo, human
Description: (§1) In the Tα1 group, patients received subcutaneous injections of 1.6 mg Tα1 (ZADAXIN™, SciClone Pharmaceuticals, Foster City, CA, USA) twice per day for five consecutive days, then once per day for two consecutive days. Prior to administration, the lyophilized powder is to be reconstituted with 1 ml of the provided diluent (sterile water for injection). After reconstitution, the final concentration of Tα1 is 1.6 mg/mL. In the control group, patients received subcutaneous injections of 1 mL normal saline twice per day for five consecutive days, then once per day for two consecutive days. According to trial protocol, therapy had to be started within 4 hrs after enrollment.
(§2) The primary efficacy end point was death from any cause and was assessed 28 days after the initiation of treatment assignment. Secondary outcomes included dynamic changes of Sequential Organ Failure Assessment (SOFA), CD 4+/CD8+ and monocyte human leukocyte antigen-DR (mHLA-DR) expression measured on day 0 (the day of enrollment), 3 and 7 in both groups. All mHLA-DR measurements were done in the center laboratory of the First Affiliated Hospital of Sun Yat-sen University. 1 ml unprocessed EDTA whole blood was stored on ice at once after drawing and was transferred to the center laboratory as soon as possible to guarantee measurement within 3 hrs after blood drawing. The method of measuring mHLA-DR was mentioned in our previous paper. Once patients were enrolled, data including demographic characteristics, microbiological findings (primary infection source and the identified microorganisms) and comorbidities were collected when available. The following clinical parameters were recorded on specific days after enrollment: on day 0, the severity as assessed by the Acute Physiology and Chronic Health Evaluation II (APACHE II); on day 0, 3, 7, SOFA, hematologic and biochemical findings, results of mHLA-DR, CD4+/CD8+ tests. The time of the first organ dysfunction was retrospectively estimated according to objective data such as blood gas analysis when the patient was enrolled.
(§3) Based on a previous study, a sample size of 334 patients was required to show a reduction in 28-day mortality rate from 50% to 35% by Tα1 treatment, with a two-sided test (a error=5%; power=80%). Considering a possible drop-out rate of 10%, the trial would need to enroll 368 patients in total. Demographic data, outcome data and other laboratory parameters were summarized by frequency for categorical variables and mean±standard deviation (SD) or median with interquartile range (IQR) for continuous variables. Proportions were compared with chi-square test or Fisher's exact test. Continuous variables were tested by means of t test with normal distribution or Wilcoxon rank-sum test with non-normal distribution. The comparison of primary outcome between two groups was performed by means of Cochran-Mantel-Haenszel test, in which patients were stratified on a number of baseline covariates such as mHLA-DR, scores of APACHE and SOFA, surgical and cancer history, sex and age. The corresponding relative risks (RRs) with 95% confidence intervals (Cis) were computed with logit-adjusted method. Kaplan-Meier estimates without adjustment for baseline covariates were used for survival time analysis, and log-rank tests for comparison. To estimate mean changes from baseline in laboratory parameters, linear mixed models for repeated measures were employed, taking into account the clustering of participating centers and repeated measurements within patients. This model included terms for baseline measurement, treatment group, visit, and treatment×visit interaction. Least-squares means with 95% CIs were reported. We also analyzed the efficacy parameters of the study drug in different prespecified subgroups. The heterogeneity of treatment effects among subgroups was assessed with use of interaction tests. […]

[1] = tested on: patients with severe sepsis; assay: ETASS trial: safety and tolerability assessment; type: in vivo, human; settings: for drug-related serious/severe adverse events: assessed by the investigator
Description: as §1
Safety and tolerability assessment of Tα1 (see Additional file 3) was based on the comparison of all available information obtained from the two groups with respect to detected outliers in laboratory safety data, drug-related serious adverse events (assessed by the investigator) and deterioration of organ and system function (assessed by the individual SOFA component scoring for respiratory, cardiovascular, hepatic, coagulation, renal and nervous systems that arose during the treatment).

[2] = tested on: patients with severe sepsis; assay: ETASS multicenter randomized controlled trial: mortality, prognosis and SOFA in severe sepsis; type: in vivo, human
Description: We did a prospective, controlled, single-blinded, multi-center randomized clinical trial, which was conducted in the ICUs of six tertiary, teaching hospitals. The ethics committee of the First Affiliated Hospital of Sun Yat-sen University approved the protocol (200815). Written informed consents were obtained from the patients or next of kin for patients unable to consent. The trial was registered with ClinicalTrials.gov, number NCT00711620.
From May 12, 2008 to Dec. 22, 2010 patients diagnosed with severe sepsis admitted to ICUs were enrolled in the trial. The criteria for severe sepsis were a modification of those defined by Bernard et al. (see Additional file 1).
To reduce the impact on the results from heterogeneity of severe sepsis and inter-hospital variation in patient sources as much as possible, stratification by investigative center in combination with computer-generated block randomization (block size=8) according to the sequence of recruitment was employed in the enrollment process. The method of randomization and block size were blinded until the data analysis was finished completely. Clinicians who enrolled the subjects were not involved in data collection. Eligible patients were randomly assigned in a 1:1 ratio in each hospital with four in each block assigned to receive the study drug and the other four to the control group after telephone verification through a randomization center. The allocation sequence was concealed from the researchers. To prevent advance knowledge of treatment assignment and subversion of the allocation sequence, trial entry sheet of the case report form (CRF) was filled out and informed consent was obtained before disclosing the unique participant number and the allocated group; the unique number generated could not be changed and deleted afterward. We used normal saline as placebo. Patients were blinded to the treatment assignments. All statistical analysis was done with masking maintained.
as §1
The treating physicians dictated patient care to current international guidelines, including adequate empiric antibiotic therapy based on current recommendations, ventilation regimen (pressure control mode), blood glucose control, resuscitation and hemodynamic support, organ support, sedation or analgesia as needed and adequate nutrition. Empirical antibiotic therapy was considered adequate when at least one effective drug was included in the empirical antibiotic treatment within the first 24 hrs of the admission to the ICU and the optimal dose and the correct route of administration were in accordance with medical standards and in ICU survivors without microbiologically detected microorganism in bloodstream or focus. When the empirical antibiotic therapy had to be changed after microbiological detection of microorganism, it was considered inadequate, whereas in non-survivors without microbiologically detected microorganism in bloodstream or focus it was considered not evaluable.
The primary efficacy end point was death from any cause and was assessed 28 days after the initiation of treatment assignment. […]

[3] = tested on: mHLA-DR (monocyte human leukocyte antigen-DR); assay: ETASS trial: monocyte HLA-DR expression (% of positive monocytes); type: in vivo
Description: as §1, §2, §3

[4] = 1.6 mg s.c. twice per day 5 days, then once per day 2 days, n = 181
[5] = during the 28-day study period, n = 181

## thymosin alpha 1 [Tα1]
CD4+/CD8+; 7 days
  ratio of CD4+/CD8+ during the 7 days: remained unchanged
CD4+/CD8+; Day 0 (day of enrollment)
  CD4+/CD8+, Mean (95% CI): 2.5
CD4+/CD8+; Day 3
  CD4+/CD8+, Mean (95% CI): 2.7
CD4+/CD8+; Day 7
  CD4+/CD8+, Mean (95% CI): 2.5
CD4+/CD8+; Tα1 group vs control group
  CD4+/CD8+ ΔDay 3, between groups difference: 0
  CD4+/CD8+ ΔDay 7, between groups difference: 0.1
CD4+/CD8+; day 3 compared with day 0
  CD4+/CD8+ change ΔDay 3: 0.3
CD4+/CD8+; day 7 compared with day 0
  CD4+/CD8+ change ΔDay 7: 0.1
[1]
  drug-related serious/severe adverse events: no Tα1-related severe adverse event (SAE) was reported
[1]; listed as Talpha1
  drug-related serious/severe adverse events: No serious drug-related adverse event
[1]; listed as Thymosin alpha 1
  drug-related serious/severe adverse events: not observed
[1]; during the treatment, n = 181
  patients with impairment (SOFA component score deterioration): Cardiovascular system, frequency in parentheses: (15.5)
  patients with impairment (SOFA component score deterioration): Cardiovascular system, number: 28
  patients with impairment (SOFA component score deterioration): Coagulation system, frequency in parentheses: (26.5)
  patients with impairment (SOFA component score deterioration): Coagulation system, number: 48
  patients with impairment (SOFA component score deterioration): Hepatic system, frequency in parentheses: (11.6)
  patients with impairment (SOFA component score deterioration): Hepatic system, number: 21
  patients with impairment (SOFA component score deterioration): Nervous system, frequency in parentheses: (7.7)
  patients with impairment (SOFA component score deterioration): Nervous system, number: 14
  patients with impairment (SOFA component score deterioration): Renal system, frequency in parentheses: (14.4)
  patients with impairment (SOFA component score deterioration): Renal system, number: 26
  patients with impairment (SOFA component score deterioration): Respiratory system, frequency in parentheses: (13.3)
  patients with impairment (SOFA component score deterioration): Respiratory system, number: 24
[1]; in vivo
  difference vs control in frequency of outlying laboratory values and all-cause organ or system impairment: no statistically significant differences
  treatment discontinuation due to intolerance or adverse events: no treatment was discontinued
[1]; n = 181
  patients with Hypoglycemia, frequency in parentheses: (4.4)
  patients with Hypoglycemia, number: 8
  patients with outlying values: ALT (U/L), frequency in parentheses: (21.0)
  patients with outlying values: ALT (U/L), number: 38
  patients with outlying values: AST (U/L), frequency in parentheses: (23.8)
  patients with outlying values: AST (U/L), number: 43
  patients with outlying values: Creatinine (mmol/L), frequency in parentheses: (9.9)
  patients with outlying values: Creatinine (mmol/L), number: 18
  patients with outlying values: Hemoglobin (g/L), frequency in parentheses: (14.9)
  patients with outlying values: Hemoglobin (g/L), number: 27
  patients with outlying values: Platelets 10^3/mm^3), frequency in parentheses: (37.0)
  patients with outlying values: Platelets 10^3/mm^3), number: 67
[2]; [4]
  28-day mortality (death from any cause), number of patients: 47
  28-day mortality (death from any cause), rate: 26.0%
[2]; 1.6 mg s.c. twice per day 5 days, then once per day 2 days, n = 181, listed as Talpha1
  28-day mortality (death from any cause), rate: 26.0%
[2]; 1.6 mg s.c. twice per day 5 days, then once per day 2 days, n = 181, listed as TαI
  28-day mortality (death from any cause), rate: (26.0%)
[2]; 28 days, log rank P=0.049
  survival after enrollment vs control group (Kaplan-Meier, log rank): survived longer
[2]; Day 0 (day of enrollment)
  SOFA score, Mean (95% CI): 7.9
[2]; Day 3
  SOFA score, Mean (95% CI): 6.1
[2]; Day 7
  SOFA score, Mean (95% CI): 5.3
[2]; Tα1 group vs control group
  SOFA score ΔDay 3, between groups difference: −0.5
  SOFA score ΔDay 7, between groups difference: −0.7
[2]; day 3 compared with day 0
  SOFA score change ΔDay 3: −1.8
[2]; day 7 compared with day 0
  SOFA score change ΔDay 7: −2.5
[2]; [5]
  ICU-free days, Median (95% CI): 10.0 days
  Ventilation-free days, Median (95% CI): 18.0 days
[2]; in vivo
  relative risk of death in hospital compared to the control group: 0.73
[2]; n = 181
  Duration of ventilation, Median (IQR): 7.0
  ICU stay, Median (IQR): 11.0
  In-ICU mortality, number of patients: 35
  In-ICU mortality, rate: (19.3%)
  In-hospital mortality, number of patients: 52
  In-hospital mortality, rate: 28.7%
[2]; n = 181, listed as TαI
  In-hospital mortality, rate: (28.7%)
[2]; non-cancerous patients
  relative risk of death, non-cancerous patients: 0.91
[2]; non-stratified analysis
  relative risk of death within 28 days as compared to the control group: 0.74
[2]; patients with cancer
  relative risk of death compared to the control group, subgroup of patients with cancer: 0.46
[2]; stratified analyses
  primary end point in prespecified subgroups (APACHE II, SOFA, mHLA-DR, surgery or cancer history, sex, age): tended to improve outcome but without statistical significance
[2]; vs control group
  absolute reduction in 28-day mortality: 9.0%
  decreasing tendency within 7 days in SOFA score: seemed to favor the Tα1 group
  difference between the two groups in ICU mortality, ventilation-free days, ICU-free days, length of ICU stay and duration of mechanical ventilation: no significant difference
[3]; Day 0 (day of enrollment)
  mHLA-DR, Mean (95% CI): 51.8%
[3]; Day 3
  mHLA-DR, Mean (95% CI): 59.8%
[3]; Day 7
  mHLA-DR, Mean (95% CI): 68.9%
[3]; Tα1 group vs control group
  mean difference in mHLA-DR changes between the two groups, day 3: 3.9%
  mean difference in mHLA-DR changes between the two groups, day 7: 5.8%
[3]; day 3 compared with day 0
  mHLA-DR mean change from baseline ΔDay 3: 8.0%
[3]; day 7 compared with day 0
  mHLA-DR mean change from baseline ΔDay 7: 17.0%
